The source of these data is patent US5942502A, “Method of treating diseases resulting from calcium metabolism disorders” (priority 1998, dated 1999).

In general, LD50 refers to the dose expected to kill half of the subjects tested. Low values mean greater toxicity, high ones lower toxicity.

For data set [1] the following is noted: cited from earlier work.
The conditions of data set [2]: in vivo; cited from earlier work.
Data set [3] deals with postmenopausal osteoporosis. As to conditions: average dose 0.8 μg per day, cited from earlier work.
Data set [4] relates to postmenopausal osteoporosis. Particulars: cited from earlier work.
For data set [5] the following is noted: cited from earlier work. The source holds these as a separate data set.
A further data set relates to Ovariectomized rats. Nature of the data set: Ovariectomized rat model: serum Ca and P, femur dry weight, ash weight and breaking load. The class given is in vivo, Female Fisher rats. As to conditions: for Serum Pi / Breaking load (femur) / Serum Ca / Ash weight (femur) / Dry weight (femur): three times a week for 23 weeks, Mean ± SD; for Serum Pi: OVX 2.6 ± 0.4; for Breaking load (femur): OVX 9.0 ± 0.9; for Serum Ca: OVX 9.7 ± 0.2; for Ash weight (femur): OVX 285 ± 19; for Dry weight (femur): OVX 431 ± 26. The source says: Female Fisher rats, 9-10 months old, were ovariectomized and were fed a vitamin D-deficient diet containing 0.45% calcium and 0.3% phosphorus. The rats were given 15IU of vitamin D3 orally once a week throughout this experiment. Four weeks after the surgery, the rats were orally adminstered three times a week for 23 weeks with ST-630 (30, 100 or 300 pmole/kg) or 1α-hydroxyvitamin D3 (100 or 300 pmole/kg).

Data set [6] in a line: Acute toxicity (LD50), single dose. It is filed as in vivo, rat. As to conditions: rat, in vivo; single (acute) dose, male rats, at 14 days. The source says: LD50 data represent the dose administered resulting in the death of 50% of the test group.
A further data set deals with female beagle dogs. Nature of the data set: Chronic dosing toxicity, three months oral. The class given is in vivo, dog (beagle). Particulars: 0.3 mg/kg orally each day for three months. The protocol: With respect to chronic dosing, a group of six female beagle dogs were given 0.3 mg/kg of either ST-630 or 1α-hydroxyvitamin D3 orally each day for three months.
The conditions of data set [7]: compared with 1,25-(OH)2 D3; cited from earlier work.
The mark [8] stands for this setting: especially with conventional calcium supplement treatment.
[9] abbreviates: dose response over the doses tested.

“Also recorded” adds a separate entry of the source. Where two headings read alike, the source gives them in different places.

As to `C=C1CC[C@H](O)C/C1=C/C=C1\CCC[C@]2(C)[C@@H]([C@H](C)CCCC(C)(C)O)CC[C@@H]12` [hydrate of 25-hydroxyvitamin D3, 25-hydroxyvitamin D3], the hypercalcemia entry in [1] (setting [8]) is recorded as “danger of hypercalcemia”.

With `C=C1/C(=C\C=C2/CCC[C@]3(C)[C@@H]([C@H](C)/C=C/[C@H](C)C(C)(C)O)CC[C@@H]23)C[C@@H](O)C[C@@H]1O` [1α,25-dihydroxyvitamin D2], the hypercalcemia entry in data set [1] (setting [8]) is given as “causing hypercalcemia”.

`C=C1/C(=C\C=C2/CCC[C@]3(C)[C@@H]([C@H](C)CCC(O)C(C)(C)O)CC[C@@H]23)C[C@@H](O)CC1O` (stereo partly drawn) [1,24,25-trihydroxyvitamin D3]: the hypercalcemia result in [1] (in vivo) is reported as “causing hypercalcemia”.

Take `C=C1/C(=C\C=C2/CCC[C@]3(C)[C@@H]([C@H](C)/C=C/[C@H](C)C(C)C)CC[C@@H]23)C[C@@H](O)C[C@@H]1O` [1α-hydroxyvitamin D2]: the hypercalcemia result in data set [1] (setting [8]) is listed as “causing hypercalcemia”.

As for `C=C1/C(=C\C=C2/CCC[C@]3(C)[C@@H]([C@H](C)/C=C/[C@@H](C)C(C)(C)O)CC[C@@H]23)C[C@@H](O)C[C@@H]1O` [1α,25-dihydroxy-24-epi-vitamin D2], in data set [2], the intestinal calcium transport result is recorded as “increasing intestinal calcium transport”, the “mineralization of new bone” value was “stimulating the mineralization of new bone” and the “mobilizing calcium from bone” value is listed as “minimal effectiveness”.

Take `C=C1/C(=C\C=C2/CCC[C@]3(C)[C@@H]([C@H](C)CCCC(C)(C)O)CC[C@@H]23)C[C@@H](O)C[C@@H]1O` [calcitriol, 1α,25-dihydroxyvitamin D3]: in data set [3], the Hypercalciuria incidence entry is “all subjects”, the bone formation entry is “no effect on bone formation”, the bone resorption entry is “reducing bone resorption” and the calcium absorption entry is reported as “increasing calcium absorption”. The hypercalcemia incidence in data set [3] is reported as 11 of 12 subjects. Besides, the bone loss entry in data set [3] (women with postmenopausal osteoporosis) was “reduced bone loss”. Besides, the hypercalcemia entry in [4] (0.5 μg per day (0.25 μg orally twice a day), average dietary calcium intake 800 mg) is listed as “not accompanied by hypercalcemia of any severity; also recorded: limited potential to induce hypercalcemia”. For the same compound, the “rate of new vertebral fractures” value in [4] (0.5 μg per day for three years, versus supplemental calcium 1 gram daily) is “significant reduction”. Moreover, the hypercalcemia entry in [1] (setting [8]) is “causing hypercalcemia”. Moreover, the “dosage "window" or tolerance between effectiveness and toxicity” value in data set [5] (in view of Oloia et al and Tilyard et al) is listed as “relatively small”.

As to `C=C1/C(=C\C=C2/CCC[C@]3(C)[C@@H]([C@H](C)CCCC(C)C)CC[C@@H]23)C[C@@H](O)C[C@@H]1O` [1α-hydroxyvitamin D3, reference compound], in the data set on Ovariectomized rats (100 pmole/kg p.o.), the “Serum Pi” value is on record as 3.8 ± 0.3 mg/100 ml, the “Breaking load (femur)” value was found to be 9.3 ± 0.6 kg, the “Serum Ca” value stood at 9.9 ± 0.2 mg/100 ml and the “Ash weight (femur)” value turned out to be 303 ± 29 mg. Also, the “Dry weight (femur)” value in the data set with Ovariectomized rats (100 pmole/kg p.o.) worked out at 454 ± 42 mg. In the data set with Ovariectomized rats (300 pmole/kg p.o.), the “Serum Pi” value was 4.3 ± 0.4 mg/100 ml, the “Breaking load (femur)” value turned out to be 9.5 ± 1.1 kg, the “Serum Ca” value is listed as 10.3 ± 0.3 mg/100 ml and the “Ash weight (femur)” value worked out at 308 ± 33 mg. Moreover, in the data set on Ovariectomized rats (300 pmole/kg p.o.), the “Dry weight (femur)” value came out at 461 ± 47 mg. Further, in the data set with Ovariectomized rats (setting [9]), the serum calcium level entry is “increased dose-dependently” and the serum phosphorus level result is “increased dose-dependently”. For the same compound, the LD50 at 336 h in [6] worked out at 0.2 mg/kg. Moreover, in the data set with female beagle dogs, the deaths result is “two of six dogs”. Besides, the “safe dose used for human administration” value in [5] (humans) is 1 µg/day.

On to `C=C1/C(=C\C=C2/CCC[C@]3(C)[C@@H]([C@H](C)CCC(F)(F)C(C)(C)O)CC[C@@H]23)C[C@@H](O)C[C@@H]1O` [24,24-difluoro-1,25-(OH)2 D3], for which the “activity relative to 1,25-(OH)2 D3” value in [7] is “at least as great if not greater activity”.
